According to the NIST ThermoML archive (doi:10.1021/acs.jced.9b00381):
± gives the expanded uncertainty stated by the source.

Legend:
[1] = Molar enthalpy of transition or fusion; details: Crystal; DSC
[2] = Crystal; DSC

Compound: Fc1c(I)c(F)c(I)c(F)c1I [1,3,5-trifluoro-2,4,6-triiodobenzene]
- Molar enthalpy of transition or fusion [1]: 3.23 ± 0.105 kcal/mol
- Triple point temperature [2]: 424.01 ± 1 K
